Values quoted from earlier work in PubChem BioAssay AID1259409 (Chemical Carcinogenesis Research Information System (CCRIS), 2018).

Test system: rodent chemically induced tumor inhibition, incidence and multiplicity
Assay: CCRIS tumor inhibitor studies
Settings: Species: MOUSE

S=C=NCCc1ccccc1
tumour outcome (control, treated, inhibition, significance) (Carcinogen: 4(METHYLNITROSAMINO)1-(3-PYRIDYL)-1-BUTANONE, 64091-91-4, Dose [Inhibitor]: 0, 5 UMOL IN 0.1 ML CORN OIL WITH 10% DMSO 2 HR PRIOR TO CARCINOGEN DOSE (STUDY DURATION: 16 WK), Route [Inhibitor]: GAVAGE, Strain/Sex: STRAIN-A/FEMALE, Target Tissue: Type of Lesion: LUNG: ADENOMA, Dose [Carcinogen]: 10 UMOL IN 0.1 ML SALINE ONCE, Promoter: NONE USED): 100%, 100%, 0%, not significant | tumour outcome (control, treated, inhibition, significance) (Carcinogen: 4-(METHYLNITROSAMINO)-1-(3-PYRIDYL)-1-BUTANONE (NNK) [64091-91-4], Dose [Inhibitor]: 1.5 UM/G DIET, BEGINNING 13 WKS AFTER CARCINOGEN/PROMOTER TREATMENT (STUDY DURATION: 42 WK), Route [Inhibitor]: DIET, Strain/Sex: A/J/FEMALE, Target Tissue: Type of Lesion: LUNG: ADENOCARCINOMA, Dose [Carcinogen]: 3 µM WEEKLY FOR 8 DOSES, Promoter: BENZO[A]PYRENE [50-32-8]): 42%, 35%, 17%, not significant | tumour outcome (control, treated, inhibition, significance) (Carcinogen: 4-(METHYLNITROSAMINO)-1-(3-PYRIDYL)-1-BUTANONE (NNK) [64091-91-4], Dose [Inhibitor]: 1.5 UM/G DIET, BEGINNING 13 WKS AFTER CARCINOGEN/PROMOTER TREATMENT (STUDY DURATION: 42 WK), Route [Inhibitor]: DIET, Strain/Sex: A/J/FEMALE, Target Tissue: Type of Lesion: LUNG: ADENOMA, Dose [Carcinogen]: 3 µM WEEKLY FOR 8 DOSES, Promoter: BENZO[A]PYRENE [50-32-8]): 100%, 95%, 5%, not significant | tumour outcome (control, treated, inhibition, significance) (Carcinogen: 4-(METHYLNITROSAMINO)-1-(3-PYRIDYL)-1-BUTANONE (NNK) [64091-91-4], Dose [Inhibitor]: 3 UM/G DIET, BEGINNING 13 WKS AFTER CARCINOGEN/PROMOTER TREATMENT (STUDY DURATION: 42 WK), Route [Inhibitor]: DIET, Strain/Sex: A/J/FEMALE, Target Tissue: Type of Lesion: LUNG: ADENOCARCINOMA, Dose [Carcinogen]: 3 µM WEEKLY FOR 8 DOSES, Promoter: BENZO[A]PYRENE [50-32-8]): 42%, 19%, 55%, p<0.05 | tumour outcome (control, treated, inhibition, significance) (Carcinogen: 4-(METHYLNITROSAMINO)-1-(3-PYRIDYL)-1-BUTANONE [64091-91-4] (NNK), Dose [Inhibitor]: 3 UM/G DIET, BEGINNING 13 WKS AFTER CARCINOGEN/PROMOTER TREATMENT (STUDY DURATION: 42 WK), Route [Inhibitor]: DIET, Strain/Sex: A/J/FEMALE, Target Tissue: Type of Lesion: LUNG: ADENOMA, Dose [Carcinogen]: 3 µM WEEKLY FOR 8 DOSES, Promoter: BENZO[A]PYRENE [50-32-8]): 100%, 100%, 0%, not significant | tumour outcome (control, treated, inhibition, significance) (Carcinogen: 4-(METHYLNITROSAMINO)-1-(3-PYRIDYL)-1-BUTANONE [64091-91-4], BENZO[A]PYRENE [50-32-8], Dose [Inhibitor]: 0.3 UMOL/G IN DIET FOR 10 WK BEGINNING 1 WK PRIOR TO FIRST CARCINOGEN DOSE (STUDY DURATION: 28 WK), Route [Inhibitor]: ORAL, Strain/Sex: A/J/FEMALE, Target Tissue: Type of Lesion: LUNG: TUMOR, Dose [Carcinogen]: 3 UMOL BAP + 3 UMOL NNK IN 0.1 ML COTTONSEED OIL 1X/WK FOR 8 WK (STUDY DURATION: 28 WK), Promoter: NONE): 100%, 100%, 0%, not calculated | tumour outcome (control, treated, inhibition, significance) (Carcinogen: 4-(METHYLNITROSAMINO)-1-(3-PYRIDYL)-1-BUTANONE [64091-91-4], BENZO[A]PYRENE [50-32-8], Dose [Inhibitor]: 1 UMOL/G IN DIET FOR 10 WK BEGINNING 1 WK PRIOR TO FIRST CARCINOGEN DOSE (STUDY DURATION: 28 WK), Route [Inhibitor]: ORAL, Strain/Sex: A/J/FEMALE, Target Tissue: Type of Lesion: LUNG: TUMOR, Dose [Carcinogen]: 3 UMOL BAP + 3 UMOL NNK IN 0.1 ML COTTONSEED OIL 1X/WK FOR 8 WK (STUDY DURATION: 28 WK), Promoter: NONE): 100%, 100%, 0%, not calculated | tumour outcome (control, treated, inhibition, significance) (Carcinogen: 4-(METHYLNITROSAMINO)-1-(3-PYRIDYL)-1-BUTANONE [64091-91-4], BENZO[A]PYRENE [50-32-8], Dose [Inhibitor]: 3 UMOL/G IN DIET FOR 10 WK BEGINNING 1 WK PRIOR TO FIRST CARCINOGEN DOSE (STUDY DURATION: 28 WK), Route [Inhibitor]: ORAL, Strain/Sex: A/J/FEMALE, Target Tissue: Type of Lesion: LUNG: TUMOR, Dose [Carcinogen]: 3 UMOL BAP + 3 UMOL NNK IN 0.1 ML COTTONSEED OIL 1X/WK FOR 8 WK (STUDY DURATION: 28 WK), Promoter: NONE): 100%, 100%, 0%, not calculated | tumour outcome (control, treated, inhibition, significance) (Carcinogen: 4-(METHYLNITROSAMINO)-1-(3-PYRIDYL)-1-BUTANONE [64091-91-4], BENZO[A]PYRENE [50-32-8], Dose [Inhibitor]: 6 UMOL IN 0.1 ML COTTONSEED OIL 1X/WK FOR 8 WK 2 PRIOR TO EACH CARCINOGEN DOSE (STUDY DURATION: 16 WK), Route [Inhibitor]: GAVAGE, Strain/Sex: A/J/FEMALE, Target Tissue: Type of Lesion: LUNG: TUMOR, Dose [Carcinogen]: 3 UMOL BAP + 3 UMOL NNK IN 0.1 ML COTTONSEED OIL 1X/WK FOR 8 WK (STUDY DURATION: 16 WK), Promoter: NONE): 100%, 100%, 0%, not calculated | tumour outcome (control, treated, inhibition, significance) (Carcinogen: 4-(METHYLNITROSAMINO)-1-(3-PYRIDYL)-1-BUTANONE [64091-91-4], Dose [Inhibitor]: 0.3 UMOL/G IN DIET FOR 10 WK BEGINNING 1 WK PRIOR TO FIRST CARCINOGEN DOSE (STUDY DURATION: 28 WK), Route [Inhibitor]: ORAL, Strain/Sex: A/J/FEMALE, Target Tissue: Type of Lesion: LUNG: TUMOR, Dose [Carcinogen]: 3 UMOL IN 0.1 ML COTTONSEED OIL 1X/WK FOR 8 WK (STUDY DURATION: 28 WK), Promoter: NONE): 100%, 100%, 0%, not calculated | tumour outcome (control, treated, inhibition, significance) (Carcinogen: 4-(METHYLNITROSAMINO)-1-(3-PYRIDYL)-1-BUTANONE [64091-91-4], Dose [Inhibitor]: 1 UMOL/G IN DIET FOR 10 WK BEGINNING 1 WK PRIOR TO FIRST CARCINOGEN DOSE (STUDY DURATION: 28 WK), Route [Inhibitor]: ORAL, Strain/Sex: A/J/FEMALE, Target Tissue: Type of Lesion: LUNG: TUMOR, Dose [Carcinogen]: 3 UMOL IN 0.1 ML COTTONSEED OIL 1X/WK FOR 8 WK (STUDY DURATION: 28 WK), Promoter: NONE): 100%, 100%, 0%, not calculated | tumour outcome (control, treated, inhibition, significance) (Carcinogen: 4-(METHYLNITROSAMINO)-1-(3-PYRIDYL)-1-BUTANONE [64091-91-4], Dose [Inhibitor]: 3 UMOL/G IN DIET FOR 10 WK BEGINNING 1 WK PRIOR TO FIRST CARCINOGEN DOSE (STUDY DURATION: 28 WK), Route [Inhibitor]: ORAL, Strain/Sex: A/J/FEMALE, Target Tissue: Type of Lesion: LUNG: TUMOR, Dose [Carcinogen]: 3 UMOL IN 0.1 ML COTTONSEED OIL 1X/WK FOR 8 WK (STUDY DURATION: 28 WK), Promoter: NONE): 100%, 100%, 0%, not calculated | tumour outcome (control, treated, inhibition, significance) (Carcinogen: 4-(METHYLNITROSAMINO)-1-(3-PYRIDYL)-1-BUTANONE, 64091-91-4, Dose [Inhibitor]: 0, 0.2 UMOL 1/D FOR 4 D ADMINISTERED PRIOR TO CARCINOGEN TREATMENT (STUDY DURATION: 116 D), Route [Inhibitor]: GAVAGE, Strain/Sex: STRAIN A, Target Tissue: Type of Lesion: LUNG ADENOMA, Dose [Carcinogen]: 10 UMOL ONCE 2 HR AFTER FINAL DOSE OF INHIBITOR, Promoter: NONE USED): 100%, 100%, 0%, not significant | tumour outcome (control, treated, inhibition, significance) (Carcinogen: 4-(METHYLNITROSAMINO)-1-(3-PYRIDYL)-1-BUTANONE, 64091-91-4, Dose [Inhibitor]: 0, 0.008% IN DIET FOR 17 WK BEGINNING 1 WK PRIOR TO CARCINOGEN DOSE (STUDY DURATION: 17 WK), Route [Inhibitor]: ORAL, Strain/Sex: STRAIN-A/FEMALE, Target Tissue: Type of Lesion: LUNG: ADENOMA, Dose [Carcinogen]: 10 UMOL IN 0.1 ML SALINE ONCE, Promoter: NONE USED): 100%, 96%, 4%, not significant | tumour outcome (control, treated, inhibition, significance) (Carcinogen: 4-(METHYLNITROSAMINO)-1-(3-PYRIDYL)-1-BUTANONE, 64091-91-4, Dose [Inhibitor]: 0, 1 UMOL 1/D FOR 4 D ADMINISTERED PRIOR TO CARCINOGEN TREATMENT (STUDY DURATION: 116 D), Route [Inhibitor]: GAVAGE, Strain/Sex: STRAIN A, Target Tissue: Type of Lesion: LUNG: ADENOMA, Dose [Carcinogen]: 10 UMOL ONCE, Promoter: NONE USED): 100%, 100%, 0%, not significant
